In publication PMC4307180, “Overcoming myelosuppression due to synthetic lethal toxicity for FLT3-targeted acute myeloid leukemia therapy” (eLife, 2014):
Entries after “also recorded” stand apart in the source; their conditions may differ.

Key:
Ba/F3 FLT3 ITD + Y842H = test: Ba/F3 cell viability, FLT3 ITD + Y842H; assay type: cell-based; settings: Mus musculus, Ba/F3, 48 hr, ± SEM
Method: (§1) Stable Ba/F3 lines were generated by retroviral spinfection with the appropriate mutated plasmid as previously described ([Smith et al., 2012]).
(§2) Exponentially growing cells (5 × 10^3 cells per well) were plated in each well of a 96-well plate with 0.1 ml of RPMI 1640 + 10% (vol/vol) FCS containing the appropriate concentration of drug in triplicate, and cell viability was assessed after 48 hr as previously described ([Smith et al., 2012]). […] Log10-scale transformation of ratios, followed by conditional formatting using xcel spreadsheet software yielded the colored diagrams shown.
(§3) Mutations isolated in the screen were engineered into pMSCVpuroFLT3–ITD by QuikChange mutagenesis (Stratagene, La Jolla, CA) as previously described ([Smith et al., 2012]).

Ba/F3 FLT3 ITD + Y842C = test: Ba/F3 cell viability, FLT3 ITD + Y842C; assay type: cell-based; settings: Mus musculus, Ba/F3, 48 hr, ± SEM
Method: as §1, §2, §3

Ba/F3 FLT3 ITD + D835F = test: Ba/F3 cell viability, FLT3 ITD + D835F; assay type: cell-based; settings: Mus musculus, Ba/F3, 48 hr, ± SEM
Method: as §1, §2, §3

zebrafish embryos = test: Zebrafish embryonic development / WT morphology; assay type: in vivo, Danio rerio (zebrafish); settings: 3 dpf, drug from 6 hpf
Method: (§4) Figure 4. […] (N–P) Three categories of mpo transcription (N, normal; O, intermediate; P, severe) were defined based on the WISH results (three experiments). […] Scale bar equals 500 μm. Blue arrows indicate the pericardial edema, green arrows indicate tail shortening and curving, and red arrows indicate the FLT3-ITD AML mpo+ myeloid cells expansion. […] For all experiments: Zebrafish embryos were collected and kept in standard E3 medium at 28°C. Different concentrations of either drug were added to the E3 medium from 6 hr post fertilization (hpf) to 3 days post fertilization (dpf). Embryos treated with DMSO or 10 μM drug from 6 to 30 hpf were collected for mpo whole mount in situ hybridization (WISH) analysis. […] plasmid DNA containing FLT3/ITD sequence was microinjected into one-cell stage embryos, and the uninjected embryos were used as control. FLT3/ITD-injected embryos were treated with DMSO or 10 μM drug from 6 to 30 hpf.
(§5) Wild-type (WT) zebrafish were maintained under standard conditions, and embryos were staged as described ([He et al., 2014]). The study was approved by the Committee of the Use of Live Animals for Teaching and Research in The University of Hong Kong.

Ba/F3 FLT3 D835V = test: Ba/F3 cell viability, FLT3 D835V; assay type: cell-based; settings: Mus musculus, BaF3; Ba/F3, 48 hr, ± SEM
Method: as §1, §2, §3

Ba/F3 FLT3 ITD + D698N = test: Ba/F3 cell viability, FLT3 ITD + D698N; assay type: cell-based; settings: Mus musculus, Ba/F3, 48 hr, ± SEM
Method: as §1, §2, §3

Ba/F3 FLT3 ITD + A848P = test: Ba/F3 cell viability, FLT3 ITD + A848P; assay type: cell-based; settings: Mus musculus, Ba/F3, 48 hr, ± SEM
Method: as §1, §2, §3

Ba/F3 Parental + IL3 = test: Ba/F3 cell viability, Parental + IL3; assay type: cell-based; settings: Mus musculus, BaF3; Ba/F3, 48 hr, ± SEM
Method: as §1, §2

[1] = system: Molm14 cells (FLT3-ITD heterozygous); test: Cell proliferation/viability assay, Molm14; assay type: cell-based; settings: Homo sapiens, MOLM-14, 48 hr, ± SEM
Method: as §2

Ba/F3 FLT3 ITD + D835Y = test: Ba/F3 cell viability, FLT3 ITD + D835Y; assay type: cell-based; settings: Mus musculus, Ba/F3, 48 hr, ± SEM
Method: as §1, §2, §3

CSF1R = CSF1R (Homo sapiens, UniProt P07333); test: Reaction Biology Corp kinase assay at Km-ATP (Figure 1C), CSF1R
Ba/F3 FLT3 ITD + D839G = test: Ba/F3 cell viability, FLT3 ITD + D839G; assay type: cell-based; settings: Mus musculus, Ba/F3, 48 hr, ± SEM
Method: as §1, §2, §3

[2] = system: FLT3/ITD-injected zebrafish embryos; test: Zebrafish FLT3/ITD-induced mpo+ myeloid cell expansion; assay type: in vivo, Danio rerio (zebrafish); settings: 10 μM, 6 to 30 hpf, read at 30 hpf
Method: as §4, §5

[3] = system: mpo+ myeloid cells in zebrafish embryos; test: Zebrafish normal myelopoiesis, mpo WISH in posterior blood island; assay type: in vivo, Danio rerio (zebrafish); settings: 10 μM, 6 to 30 hpf, read at 30 hpf, vs DMSO
Method: as §4, §5

purified FLT3 WT = biological target: T1, purified FLT3 WT (Homo sapiens, UniProt P36888); test: Radiolabeled purified kinase assay (Figure 1B)
T1 sequence (P36888 27-993): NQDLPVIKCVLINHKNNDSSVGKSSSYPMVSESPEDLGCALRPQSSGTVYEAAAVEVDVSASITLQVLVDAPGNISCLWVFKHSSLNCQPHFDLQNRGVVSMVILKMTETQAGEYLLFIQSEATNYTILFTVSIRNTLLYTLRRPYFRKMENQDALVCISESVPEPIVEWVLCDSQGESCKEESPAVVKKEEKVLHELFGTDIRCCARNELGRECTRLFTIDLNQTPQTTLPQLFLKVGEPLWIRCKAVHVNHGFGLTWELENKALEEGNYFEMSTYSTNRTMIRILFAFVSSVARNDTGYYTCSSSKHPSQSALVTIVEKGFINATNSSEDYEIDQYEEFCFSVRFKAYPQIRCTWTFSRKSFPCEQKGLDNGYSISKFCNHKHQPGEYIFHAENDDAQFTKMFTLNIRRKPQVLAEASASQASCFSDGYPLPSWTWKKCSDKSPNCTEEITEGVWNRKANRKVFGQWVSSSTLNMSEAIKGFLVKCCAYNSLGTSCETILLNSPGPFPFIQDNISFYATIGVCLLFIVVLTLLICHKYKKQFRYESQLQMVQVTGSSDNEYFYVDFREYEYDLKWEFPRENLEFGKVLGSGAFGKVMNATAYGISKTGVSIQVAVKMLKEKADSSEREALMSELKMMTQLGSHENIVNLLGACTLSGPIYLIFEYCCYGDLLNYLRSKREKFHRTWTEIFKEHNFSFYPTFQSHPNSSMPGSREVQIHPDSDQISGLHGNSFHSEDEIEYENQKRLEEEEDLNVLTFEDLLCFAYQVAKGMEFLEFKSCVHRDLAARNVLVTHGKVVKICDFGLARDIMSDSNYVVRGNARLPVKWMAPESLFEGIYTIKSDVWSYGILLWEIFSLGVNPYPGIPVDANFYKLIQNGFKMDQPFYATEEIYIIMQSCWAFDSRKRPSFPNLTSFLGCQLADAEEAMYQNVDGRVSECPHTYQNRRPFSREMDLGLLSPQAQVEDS

Ba/F3 FLT3 D835Y = test: Ba/F3 cell viability, FLT3 D835Y; assay type: cell-based; settings: Mus musculus, BaF3; Ba/F3, 48 hr, ± SEM
Method: as §1, §2, §3

K562 cells (Bcr-Abl) = test: Cell proliferation/viability assay, K562; assay type: cell-based; settings: Homo sapiens, 48 hr
Method: as §2

HMC1.1 cells (KIT V560G) = test: Cell proliferation/viability assay, HMC1.1; assay type: cell-based, human
Method: as §2

Sequence of CSF1R (P07333 20-972): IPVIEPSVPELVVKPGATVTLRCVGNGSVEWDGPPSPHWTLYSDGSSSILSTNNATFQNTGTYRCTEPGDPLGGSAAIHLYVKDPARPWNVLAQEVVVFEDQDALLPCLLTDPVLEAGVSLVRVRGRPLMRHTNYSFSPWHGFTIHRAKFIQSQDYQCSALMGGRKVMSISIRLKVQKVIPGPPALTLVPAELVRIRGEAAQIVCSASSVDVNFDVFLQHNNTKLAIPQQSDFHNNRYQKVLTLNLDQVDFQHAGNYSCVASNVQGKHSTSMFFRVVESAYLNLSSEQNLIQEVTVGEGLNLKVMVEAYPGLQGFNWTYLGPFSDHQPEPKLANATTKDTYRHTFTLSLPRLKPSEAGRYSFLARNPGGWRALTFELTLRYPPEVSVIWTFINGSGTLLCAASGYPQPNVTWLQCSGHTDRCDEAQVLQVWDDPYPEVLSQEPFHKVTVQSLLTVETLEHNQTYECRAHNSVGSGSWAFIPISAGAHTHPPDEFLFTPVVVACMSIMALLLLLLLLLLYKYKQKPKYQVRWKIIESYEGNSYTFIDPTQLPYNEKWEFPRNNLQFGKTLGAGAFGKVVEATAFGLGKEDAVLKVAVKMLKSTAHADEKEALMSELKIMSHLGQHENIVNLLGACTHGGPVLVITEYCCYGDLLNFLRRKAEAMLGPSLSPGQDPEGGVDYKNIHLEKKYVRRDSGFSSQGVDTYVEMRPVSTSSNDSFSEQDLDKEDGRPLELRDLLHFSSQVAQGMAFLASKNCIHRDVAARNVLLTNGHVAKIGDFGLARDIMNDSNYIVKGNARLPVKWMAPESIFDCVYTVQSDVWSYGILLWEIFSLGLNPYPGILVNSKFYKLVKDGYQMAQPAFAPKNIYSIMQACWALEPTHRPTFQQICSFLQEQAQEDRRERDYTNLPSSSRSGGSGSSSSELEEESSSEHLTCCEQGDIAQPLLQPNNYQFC

IC50 (Ba/F3 FLT3 ITD + Y842H): 38 ± 24 nM
IC50 (Ba/F3 FLT3 ITD + Y842C): 48 ± 29 nM
IC50 (Ba/F3 FLT3 ITD + D835F): 53 ± 36 nM
IC50 (Ba/F3 FLT3 D835V): 19 ± 3 nM
IC50 (Ba/F3 FLT3 ITD + D698N): 174 ± 44 nM
IC50 (Ba/F3 FLT3 ITD + A848P): 53 ± 31 nM
IC50 [1]: 57 ± 8 nM
IC50 (Ba/F3 FLT3 ITD + D835Y): 39 ± 24 nM
IC50 (CSF1R): > 9880 nM
CSF1R/FLT3 IC50 ratio (CSF1R; ratio of Figure 1C IC50s): > 16,500
IC50 (Ba/F3 FLT3 ITD + D839G): 80 ± 41 nM
IC50 (purified FLT3 WT): 1.5 nM
IC50 (Ba/F3 FLT3 D835Y): 18 ± 12 nM
IC50 (K562 cells (Bcr-Abl)): > 5000 nM
SMILES: CC1NC(=O)c2c1c1c3ccccc3n(CCCN)c1c1[nH]c3ccccc3c21 (centres unmarked) [Star 27]
effect on zebrafish embryonic development / morphology (zebrafish embryos): no change in heart and tail morphology; also recorded: no noticeable morphological defects up to 10 μM
IC50 (Ba/F3 Parental + IL3): 2300 nM
effect on FLT3/ITD-induced mpo+ myeloid cells expansion [2]: rescue of normal phenotype approaching that seen for AC220
effect on mpo+ myeloid cells development in the PBI [3]: no statistically significant change; also recorded: non-significant difference
IC50 (HMC1.1 cells (KIT V560G); Homo sapiens, Kit V560 G, 48 hr, ± SEM): > 5000 nM
selectivity window HMC1.1/MV4;11 (HMC1.1 cells (KIT V560G); ratio of proliferation IC50s): > 122 fold
